From BindingDB's records for doi:10.1021/jm9905054 (Eisai, 2000)
Counter-ions that a name gives are not always drawn.

Assay: 50% inhibitory concentration against phosphodiesterase 5 (PDE5) from porcine platelets

IC50 [nM]	SMILES
3	COc1ccc(CNc2nnc(Cl)c3ccc(C#N)cc23)cc1Cl
0.7	COc1ccc(CNc2nnc(N3CC[S+]([O-])CC3)c3ccc(C#N)cc23)cc1Cl
0.5	COc1ccc(CNc2nnc(N3CCC(C(N)=O)CC3)c3ccc(C#N)cc23)cc1Cl [1-[4-(3-Chloro-4-methoxy-benzylamino)-6-cyano-phthalazin-1-yl]-piperidine-4-carboxylic acid amide; hydrochloride]
3.1	COc1ccc(CNc2nnc(N3CCC(C(=O)O)CC3)c3ccc(C#N)cc23)cc1Cl [1-[4-(3-Chloro-4-methoxy-benzylamino)-6-cyano-phthalazin-1-yl]-piperidine-4-carboxylic acid; hydrochloride]
0.3	COc1ccc(CNc2nnc(N3CCC(O)CC3)c3ccc([N+](=O)[O-])cc23)cc1Cl [1-[4-(3-Chloro-4-methoxy-benzylamino)-6-nitro-phthalazin-1-yl]-piperidin-4-ol; hydrochloride]
0.73	COc1ccc(CNc2nnc(N3CCC(O)CC3)c3ccc(C(F)(F)F)cc23)cc1Cl [1-[4-(3-Chloro-4-methoxy-benzylamino)-6-trifluoromethyl-phthalazin-1-yl]-piperidin-4-ol; hydrochloride]
0.86	COc1ccc(CNc2nnc(N3CCC(O)CC3)c3cc(Cl)c(Cl)cc23)cc1Cl [1-[6,7-Dichloro-4-(3-chloro-4-methoxy-benzylamino)-phthalazin-1-yl]-piperidin-4-ol; hydrochloride]
4.4	COc1ccc(CNc2nnc(N3CCC(O)CC3)c3ccc(Cl)cc23)cc1Cl [1-[6-Chloro-4-(3-chloro-4-methoxy-benzylamino)-phthalazin-1-yl]-piperidin-4-ol; hydrochloride]
0.79	COc1ccc(CNc2nnc(N3CCS(=O)(=O)CC3)c3ccc(C#N)cc23)cc1Cl [4-(3-Chloro-4-methoxy-benzylamino)-1-(1,1-dioxo-1lambda*6*-thiomorpholin-4-yl)-phthalazine-6-carbonitrile; hydrochloride]
1.9	COc1ccc(CNc2nnc(N3CC=CCC3)c3ccc(C#N)cc23)cc1Cl [4-(3-Chloro-4-methoxy-benzylamino)-1-(3,6-dihydro-2H-pyridin-1-yl)-phthalazine-6-carbonitrile; hydrochloride]
1.2	COc1ccc(CNc2nnc(N3CCCC(O)C3)c3ccc(C#N)cc23)cc1Cl (configuration not stated) [4-(3-Chloro-4-methoxy-benzylamino)-1-(3-hydroxy-piperidin-1-yl)-phthalazine-6-carbonitrile; hydrochloride]
2.6	COc1ccc(CNc2nnc(NCCCO)c3ccc(C#N)cc23)cc1Cl [4-(3-Chloro-4-methoxy-benzylamino)-1-(3-hydroxy-propylamino)-phthalazine-6-carbonitrile; hydrochloride]
0.7	COc1ccc(CNc2nnc(N3CCC(C)(O)CC3)c3ccc(C#N)cc23)cc1Cl [4-(3-Chloro-4-methoxy-benzylamino)-1-(4-hydroxy-4-methyl-piperidin-1-yl)-phthalazine-6-carbonitrile; hydrochloride]
12	COc1ccc(CNc2nnc(N[C@H]3CC[C@H](O)CC3)c3ccc(C#N)cc23)cc1Cl [4-(3-Chloro-4-methoxy-benzylamino)-1-(4-hydroxy-cyclohexylamino)-phthalazine-6-carbonitrile; hydrochloride]
2	COc1ccc(CNc2nnc(N3CCC(O)CC3)c3ccc(C(N)=O)cc23)cc1Cl [4-(3-Chloro-4-methoxy-benzylamino)-1-(4-hydroxy-piperidin-1-yl)-phthalazine-6-carboxylic acid amide; hydrochloride]
600	COc1ccc(CNc2nnc(N3CCC(O)CC3)c3ccc(C(=O)O)cc23)cc1Cl [4-(3-Chloro-4-methoxy-benzylamino)-1-(4-hydroxy-piperidin-1-yl)-phthalazine-6-carboxylic acid; hydrochloride]

IC50 [nM]	SMILES
0.93	COc1ccc(CNc2nnc(N3CCC(CO)CC3)c3ccc(C#N)cc23)cc1Cl [4-(3-Chloro-4-methoxy-benzylamino)-1-(4-hydroxymethyl-piperidin-1-yl)-phthalazine-6-carbonitrile; hydrochloride]
1.1	COc1ccc(CNc2nnc(N3CCC(OC)CC3)c3ccc(C#N)cc23)cc1Cl [4-(3-Chloro-4-methoxy-benzylamino)-1-(4-methoxy-piperidin-1-yl)-phthalazine-6-carbonitrile; hydrochloride]
0.95	COc1ccc(CNc2nnc(N3CCN(C)CC3)c3ccc(C#N)cc23)cc1Cl [4-(3-Chloro-4-methoxy-benzylamino)-1-(4-methyl-piperazin-1-yl)-phthalazine-6-carbonitrile; hydrochloride]
0.53	COc1ccc(CNc2nnc(N3CCC(=O)CC3)c3ccc(C#N)cc23)cc1Cl [4-(3-Chloro-4-methoxy-benzylamino)-1-(4-oxo-piperidin-1-yl)-phthalazine-6-carbonitrile; hydrochloride]
11	COc1ccc(CNc2nnc(N3CCN(c4ccccn4)CC3)c3ccc(C#N)cc23)cc1Cl [4-(3-Chloro-4-methoxy-benzylamino)-1-(4-pyridin-2-yl-piperazin-1-yl)-phthalazine-6-carbonitrile; hydrochloride]
19	COc1ccc(CNc2nnc(N3CCN(c4ncccn4)CC3)c3ccc(C#N)cc23)cc1Cl [4-(3-Chloro-4-methoxy-benzylamino)-1-(4-pyrimidin-2-yl-piperazin-1-yl)-phthalazine-6-carbonitrile; hydrochloride]
1.7	COc1ccc(CNc2nnc(N3CCN(CCO)CC3)c3ccc(C#N)cc23)cc1Cl [4-(3-Chloro-4-methoxy-benzylamino)-1-[4-(2-hydroxy-ethyl)-piperazin-1-yl]-phthalazine-6-carbonitrile; hydrochloride]
0.7	COc1ccc(CNc2nnc(N3CCC(CCO)CC3)c3ccc(C#N)cc23)cc1Cl [4-(3-Chloro-4-methoxy-benzylamino)-1-[4-(2-hydroxy-ethyl)-piperidin-1-yl]-phthalazine-6-carbonitrile; hydrochloride]
2.7	COc1ccc(CNc2nnc(NCc3ccccn3)c3ccc(C#N)cc23)cc1Cl [4-(3-Chloro-4-methoxy-benzylamino)-1-[(pyridin-2-ylmethyl)-amino]-phthalazine-6-carbonitrile; hydrochloride]
6.8	COc1ccc(CNc2nnc(NCc3cccnc3)c3ccc(C#N)cc23)cc1Cl [4-(3-Chloro-4-methoxy-benzylamino)-1-[(pyridin-3-ylmethyl)-amino]-phthalazine-6-carbonitrile; hydrochloride]
6.7	COc1ccc(CNc2nnc(NCc3ccncc3)c3ccc(C#N)cc23)cc1Cl [4-(3-Chloro-4-methoxy-benzylamino)-1-[(pyridin-4-ylmethyl)-amino]-phthalazine-6-carbonitrile; hydrochloride]
1.5	COc1ccc(CNc2nnc(-n3ccnc3)c3ccc(C#N)cc23)cc1Cl [4-(3-Chloro-4-methoxy-benzylamino)-1-imidazol-1-yl-phthalazine-6-carbonitrile; hydrochloride]
1.2	COc1ccc(CNc2nnc(N3CCNCC3)c3ccc(C#N)cc23)cc1Cl [4-(3-Chloro-4-methoxy-benzylamino)-1-piperazin-1-yl-phthalazine-6-carbonitrile; hydrochloride]
0.55	COc1ccc(CNc2nnc(N3CCCCC3)c3ccc(C#N)cc23)cc1Cl [4-(3-Chloro-4-methoxy-benzylamino)-1-piperidin-1-yl-phthalazine-6-carbonitrile; hydrochloride]
0.32	COc1ccc(CNc2nnc(N3CCSCC3)c3ccc(C#N)cc23)cc1Cl [4-(3-Chloro-4-methoxy-benzylamino)-1-thiomorpholin-4-yl-phthalazine-6-carbonitrile; hydrochloride]
14	COc1ccc(CNc2nnc(N3CCC(NS(C)(=O)=O)CC3)c3ccc(C#N)cc23)cc1Cl [N-{1-[4-(3-Chloro-4-methoxy-benzylamino)-6-cyano-phthalazin-1-yl]-piperidin-4-yl}-methanesulfonamide; hydrochloride]
